Measured values taken from patent EP0633893B1, “17-SUBSTITUTED STEROIDS USEFUL IN CANCER TREATMENT” (priority 1992, dated 1993).
Read-outs that look alike come from different tables or passages of the source.

Columns and labels:
Male HWT mice [1] = type: in vivo; settings: daily for 2 weeks, mean ± standard error
Description: (§1) Male HWT mice, 12 weeks old, were treated daily for 2 weeks, with 5 animals per treatment group. The test compounds were the compound of Examples 1 and 4 (as representative of compounds of the invention having the pregenolone-like and progesterone-like skeletons respectively). Ketoconazole was also tested at three different doses. The test compounds were made up in 5% benzyl alcohol, 95% safflower oil, and were given i.p.. In addition to an untreated control group of animals, there was also a solvent control group which received the same volume of liquid as the test group (5ml/kg) but no test compound. All animals were sacrificed 24 hours after the last injection. Blood was collected by cardiac puncture into heparinized tubes, and the plasma used for RIA (radio immunoassay) of testosterone and luteinising hormone. The following organs were removed and weighed: adrenals, prostate, seminal vesicles, testes, kidneys. There was no significant body weight loss in any group of mice during the experiments.

testosterone = assay: In vivo endocrine test in mice: RIA of plasma testosterone; settings: 2 weeks, plasma 24 hours after last injection, mean ± standard error
Description: Male HWT mice, 12 weeks old, were treated daily for 2 weeks, with 5 animals per treatment group. […] The test compounds were made up in 5% benzyl alcohol, 95% safflower oil, and were given i.p.. In addition to an untreated control group of animals, there was also a solvent control group which received the same volume of liquid as the test group (5ml/kg) but no test compound. All animals were sacrificed 24 hours after the last injection. Blood was collected by cardiac puncture into heparinized tubes, and the plasma used for RIA (radio immunoassay) of testosterone and luteinising hormone.

luteinising hormone = assay: In vivo endocrine test in mice: RIA of plasma luteinising hormone; settings: 2 weeks, plasma 24 hours after last injection, mean ± standard error
Description: as §1

Male HWT mice [2] = settings: mouse, in vivo; for Post mortem examination: appearance of organs / Post mortem examination: deposits: ip
Description: as §1
In Ketoconazole-treated animals, adhesions were found in 2/5,2/5,4/5 of the low/middle/top dose groups. […] The livers were brown in the middle/top dose groups.

aromatase = biological target: T1, aromatase (Homo sapiens, UniProt P11511); assay: biochemical
T1 sequence (P11511 1-503): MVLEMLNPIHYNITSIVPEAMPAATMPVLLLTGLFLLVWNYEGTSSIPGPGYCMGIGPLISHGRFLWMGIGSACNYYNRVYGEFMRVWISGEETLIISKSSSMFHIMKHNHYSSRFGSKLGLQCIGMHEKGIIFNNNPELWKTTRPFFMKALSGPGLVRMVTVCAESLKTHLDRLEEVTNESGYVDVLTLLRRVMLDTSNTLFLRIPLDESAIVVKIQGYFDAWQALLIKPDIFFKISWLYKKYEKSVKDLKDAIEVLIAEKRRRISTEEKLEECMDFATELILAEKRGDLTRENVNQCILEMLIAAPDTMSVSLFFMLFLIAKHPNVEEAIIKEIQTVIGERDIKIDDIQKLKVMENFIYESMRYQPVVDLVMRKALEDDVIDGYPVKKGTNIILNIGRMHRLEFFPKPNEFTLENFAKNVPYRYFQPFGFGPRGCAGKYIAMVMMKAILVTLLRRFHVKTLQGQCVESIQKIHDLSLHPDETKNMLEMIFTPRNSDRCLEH
Description: Aromatase activity was determined by the method of A. B. Foster et al., J. Med. Chem. 26, 50-54 (1983), using human placental microsomes.

C17-C20 lyase = biological target: T2, C17-C20 lyase (Homo sapiens, UniProt P05093); assay: Determination of C17-C20 lyase (human testicular microsomes, 3H-17α-hydroxyprogesterone substrate, HPLC); type: biochemical
T2 construct: The microsomal pellet was then resuspended in 50mM sodium phosphate pH 7.4/glycerol (3/1 v/v) and stored in aliquots in liquid nitrogen; from tissue; host or cells: human testis microsomes
T2 sequence (P05093 1-508): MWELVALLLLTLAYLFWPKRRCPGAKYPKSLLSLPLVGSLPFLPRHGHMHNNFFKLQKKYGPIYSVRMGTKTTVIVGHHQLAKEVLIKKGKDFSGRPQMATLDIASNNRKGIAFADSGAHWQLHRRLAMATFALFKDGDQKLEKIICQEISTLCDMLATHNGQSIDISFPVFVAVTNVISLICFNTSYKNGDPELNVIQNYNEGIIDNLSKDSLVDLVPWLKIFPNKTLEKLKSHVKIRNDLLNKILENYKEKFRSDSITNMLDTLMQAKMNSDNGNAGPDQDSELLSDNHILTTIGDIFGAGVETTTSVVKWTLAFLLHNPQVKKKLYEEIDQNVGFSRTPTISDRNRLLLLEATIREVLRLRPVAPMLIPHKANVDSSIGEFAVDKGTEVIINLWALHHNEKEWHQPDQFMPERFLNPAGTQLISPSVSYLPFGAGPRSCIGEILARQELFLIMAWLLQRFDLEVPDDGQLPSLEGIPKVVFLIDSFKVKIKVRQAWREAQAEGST
Description: Human testes were obtained from previously untreated patients undergoing orchidectomy for prostatic cancer. The testes were decapsulated and stored in liquid nitrogen until use. […] The material was then thawed, finely chopped, and homogenised in 0.25M sucrose (5ml/g wet weight) using a Potter homogeniser. The homogenate was centrifuged at 12000g for 30 min, and then the microsomes were pelleted by spinning the supernatant at 100,000g for lhr. The pellet was washed by being resuspended in 0.25M sucrose and repelleted. The microsomal pellet was then resuspended in 50mM sodium phosphate pH 7.4/glycerol (3/1 v/v) and stored in aliquots in liquid nitrogen.
The mixture was the same as described above for the 17«-hydroxylase except that the substrate was ^3H-17α-hydroxyprogesterone.
The HPLC separation used for the lyase involved a mini-re-column "Uptight Guard Column" packed with PELL-ODS (pellicular octadecyl silica) and a 10cm. main column "Apex C18" column packed with 5µ APEX-CAT silica. The eluant was 38:12:50 methanol:acetonitrile:water flowing at lml/min. The effluent was mixed 1:1 with Ecoscint A containing 5% methanol and 5% acetonitrile and the radioactivity was measured directly by a Berthold LB506C radiochemical detector. The lyase activity was measured as the production of androstenedione and testosterone.
The enzyme activity was measured in the presence of at least 4 concentrations of each compound. The data were for the 4-pyridyl and 2-picolyl compounds of Table 1 fitted by linear regression to the Dixon equation (M. Dixon, E.C. Webb, Enzymes, 2nd ed., Academic Press, New York, 1964). Data for all the other compounds were fitted by non-linear regression to the median effect equation of Chou, J. Theoret.

17α-hydroxylase = biological target: T3, 17α-hydroxylase (Homo sapiens, UniProt P05093); assay: Determination of 17α-hydroxylase (human testicular microsomes, 3H-progesterone substrate, HPLC); type: biochemical
T3 construct: The microsomal pellet was then resuspended in 50mM sodium phosphate pH 7.4/glycerol (3/1 v/v) and stored in aliquots in liquid nitrogen; from tissue; host or cells: human testis microsomes
T3 sequence (P05093 1-508): T2 sequence (P05093 1-508)
Description: Human testes were obtained from previously untreated patients undergoing orchidectomy for prostatic cancer. The testes were decapsulated and stored in liquid nitrogen until use. A microsomal preparation was prepared essentially as described by S. E. Barrie et al., J. Steroid Biochem. 6, 1191-5, (1989). The material was then thawed, finely chopped, and homogenised in 0.25M sucrose (5ml/g wet weight) using a Potter homogeniser. The homogenate was centrifuged at 12000g for 30 min, and then the microsomes were pelleted by spinning the supernatant at 100,000g for lhr. The pellet was washed by being resuspended in 0.25M sucrose and repelleted. The microsomal pellet was then resuspended in 50mM sodium phosphate pH 7.4/glycerol (3/1 v/v) and stored in aliquots in liquid nitrogen.
The basic assay mixture was EDTA (0.2mM), dithiothreitol (DTT; 0.1mM), NADPH (0.25mM), glucose 6-phosphate dehydrogenase (G6PDH; 6.25 µg/ml), MgCl2 (1mM), glucose 6-phosphate (G6P; 10mM) and the substrate, ^3H-progesterone (3µM) in sodium phosphate (50mm), pH 7.4. The compounds under test were dissolved in 50% DMSO and the final concentrations of ethanol and DMSO were 1% each. The assay reaction was carried out for 1 hour and was terminated by the addition of 2 vols. of methanol-acetonitrile (2:1) containing approx. 100µM unlabelled progesterone, 17α-hydroxyprogesterone, androstenedione, testosterone, and 16α-hydroxyprogesterone.
The separation of the steroids by HPLC was carried out using an "Uptight" guard column packed with 40-63µm Nucleosil C18 and a 10cm main column packed with 5µm Nucleosil C18 and 60% methanol as eluant. The radioactivity in the peaks of interest was monitored on-line by mixing the HPLC effluent 1:1 with Ecoscint A (National Diagnostics) scintillation fluid, containing 25% acetonitrile, and passing the mixture through a Berthold LB506C radiochemical monitor. The hydroxylase activity was measured as the production of 17α-hydroxyprogesterone, androstenedione and testosterone.
The enzyme activity was measured in the presence of at least 4 concentrations of each compound.

[3] = approx. 4nM enzyme, read-out: IC50 (µM) Lyase
[4] = approx. 4nM enzyme, read-out: IC50 (µM) Hydroxylase
[5] = 25nM lyase, read-out: IC50 (µM) Lyase
[6] = 10nM hydroxylase, read-out: IC50 (µM) Hydroylase

CC(=O)O[C@H]1CC[C@@]2(C)C(=CC[C@@H]3[C@@H]2CC[C@]2(C)C(c4cccnc4)=CC[C@@H]32)C1 [Ex. 1, 3β-Acetoxy-17-(3-pyridyl)androsta-5,16-diene]
Mean weight Kidneys (Male HWT mice [1]; 0.02 mmol/kg/day i.p.): 604 ± 24 mg
Mean weight Prostate (Male HWT mice [1]; 0.02 mmol/kg/day i.p.): 8.0 ± 0.6 mg
Mean weight Seminal Vesicles (Male HWT mice [1]; 0.02 mmol/kg/day i.p.): 136 ± 4 mg
Mean weight Testes (Male HWT mice [1]; 0.02 mmol/kg/day i.p.): 134 ± 4 mg
Mean weight Kidneys (Male HWT mice [1]; 0.1 mmol/kg/day i.p.): 500 ± 8 mg
Mean weight Prostate (Male HWT mice [1]; 0.1 mmol/kg/day i.p.): 5.3 ± 0.3 mg
Mean weight Seminal Vesicles (Male HWT mice [1]; 0.1 mmol/kg/day i.p.): 51 ± 6 mg
Mean weight Testes (Male HWT mice [1]; 0.1 mmol/kg/day i.p.): 95 ± 3 mg
Mean weight Kidneys (Male HWT mice [1]; 0.5 mmol/kg/day i.p.): 449 ± 12 mg
Mean weight Prostate (Male HWT mice [1]; 0.5 mmol/kg/day i.p.): 5.6 ± 0.6 mg
Mean weight Seminal Vesicles (Male HWT mice [1]; 0.5 mmol/kg/day i.p.): 25 ± 2 mg
Mean weight Testes (Male HWT mice [1]; 0.5 mmol/kg/day i.p.): 56 ± 2 mg
Testosterone (testosterone; 0.02Mmol/Kg/Day i.p.): 2.7 ± 0.5 nM
Testosterone (testosterone; 0.5Mmol/Kg/Day i.p.): 0.1 ± 0.0 nM
Testosterone (testosterone; i.p.): 0.2 ± 0.1 nM
LH (luteinising hormone; 0.02Mmol/Kg/Day i.p.): 3.4 ± 0.5 ng/mL
LH (luteinising hormone; 0.1Mmol/Kg/Day i.p.): 2.55 ± 0.45 ng/mL
LH (luteinising hormone; 0.5Mmol/Kg/Day i.p.): 2.25 ± 0.67 ng/mL
Post mortem examination: appearance of organs (Male HWT mice [2]): all organs looked normal
Post mortem examination: deposits (Male HWT mice [2]): oil/white deposits i.p.
IC50 (aromatase): > 20000 nM

C[C@]12CC[C@H](O)CC1=CC[C@@H]1[C@@H]2CC[C@]2(C)C(c3cccnc3)=CC[C@@H]12 [Ex. 2, 17-(3-Pyridyl)androsta-5,16-dien-3β-ol]
IC50 (C17-C20 lyase; [3]): 0.0029 µM
IC50 (17α-hydroxylase; [4]): 0.004 µM

C[C@]12CCC=CC1=CC[C@@H]1[C@@H]2CC[C@]2(C)C(c3cccnc3)=CC[C@@H]12 [Ex. 3, 17-(3-Pyridyl)androsta-3,5,16-triene]
IC50 (C17-C20 lyase; [3]): 0.0056 µM
IC50 (17α-hydroxylase; [4]): 0.0125 µM

C[C@]12CCC(=O)C=C1CC[C@@H]1[C@@H]2CC[C@]2(C)C(c3cccnc3)=CC[C@@H]12 [Ex. 4, 17-(3-Pyridyl)androsta-4,16-dien-3-one]
IC50 (C17-C20 lyase; [3]): 0.0021 µM
IC50 (17α-hydroxylase; [4]): 0.0028 µM
Mean weight Kidneys (Male HWT mice [1]; 0.02 mmol/kg/day i.p.): 599 ± 29 mg
Mean weight Prostate (Male HWT mice [1]; 0.02 mmol/kg/day i.p.): 5.9 ± 0.8 mg
Mean weight Seminal Vesicles (Male HWT mice [1]; 0.02 mmol/kg/day i.p.): 108 ± 4 mg
Mean weight Testes (Male HWT mice [1]; 0.02 mmol/kg/day i.p.): 117 ± 9 mg
Mean weight Kidneys (Male HWT mice [1]; 0.1 mmol/kg/day i.p.): 549 ± 28 mg
Mean weight Prostate (Male HWT mice [1]; 0.1 mmol/kg/day i.p.): 6.4 ± 0.5 mg
Mean weight Seminal Vesicles (Male HWT mice [1]; 0.1 mmol/kg/day i.p.): 61 ± 9 mg
Mean weight Testes (Male HWT mice [1]; 0.1 mmol/kg/day i.p.): 105 ± 5 mg
Mean weight Kidneys (Male HWT mice [1]; 0.5 mmol/kg/day i.p.): 468 ± 15 mg
Mean weight Prostate (Male HWT mice [1]; 0.5 mmol/kg/day i.p.): 4.1 ± 0.5 mg
Mean weight Seminal Vesicles (Male HWT mice [1]; 0.5 mmol/kg/day i.p.): 25 ± 1 mg
Mean weight Testes (Male HWT mice [1]; 0.5 mmol/kg/day i.p.): 59 ± 2 mg
Testosterone (testosterone; 0.02Mmol/Kg/Day i.p.): 4.5 ± 0.3 nM
Testosterone (testosterone; 0.5Mmol/Kg/Day i.p.): 0.4 ± 0.1 nM
Testosterone (testosterone; i.p.): 3.5 ± 1.0 nM
Post mortem examination: appearance of organs (Male HWT mice [2]): all organs looked normal
Post mortem examination: deposits (Male HWT mice [2]): white deposits throughout the abdomen
IC50 (aromatase): 1000 nM

C[C@]12CC[C@@H]3c4ccc(O)cc4CC[C@H]3[C@@H]1CC=C2c1cccnc1 [Ex. 6, 17-(3-Pyridyl)estra-1,3,5[10],16-tetraen-3-ol]
IC50 (C17-C20 lyase; [3]): 0.0018 µM
IC50 (17α-hydroxylase; [4]): 0.0026 µM

C[C@]12CC[C@@H](O)C[C@@H]1CC[C@@H]1[C@@H]2CC[C@]2(C)C(c3cccnc3)=CC[C@@H]12 [Ex. 8, 17-(3-Pyridyl)-5α-androst-16-en-3α-ol]
IC50 (C17-C20 lyase): 0.0025 µM
IC50 (17α-hydroxylase): 0.0043 µM

C[C@]12CCC(=O)C[C@@H]1CC[C@@H]1[C@@H]2CC[C@]2(C)C(c3cccnc3)=CC[C@@H]12 [Ex. 9, 17-(3-Pyridyl)-5α-androst-16-en-3-one]
IC50 (C17-C20 lyase): 0.003 µM

C[C@]12CCC(=O)C=C1CC[C@@H]1[C@@H]2C(=O)C[C@]2(C)C(c3cccnc3)=CC[C@@H]12 [Ex. 10, 17-(3-Pyridyl)androsta-4,16-diene-3,11-dione]
IC50 (C17-C20 lyase; [3]): 0.0025 µM
IC50 (17α-hydroxylase; [4]): 0.0091 µM

C[C@]12CCC(=O)C=C1[C@H](F)C[C@@H]1[C@@H]2CC[C@]2(C)C(c3cccnc3)=CC[C@@H]12 [Ex. 12, 6β-Fluoro-17-(3-pyridyl)androsta-4,16-dien-3-one]
IC50 (C17-C20 lyase; [3]): 0.0022 µM
IC50 (17α-hydroxylase; [4]): 0.0033 µM

C[C@]12CCC(=O)C=C1[C@@H](F)C[C@@H]1[C@@H]2CC[C@]2(C)C(c3cccnc3)=CC[C@@H]12 [Ex. 13, 6α-Fluoro-17-(3-pyridyl)androsta-4,16-dien-3-one]
IC50 (C17-C20 lyase; [3]): 0.0032 µM
IC50 (17α-hydroxylase; [4]): 0.0053 µM

C[C@]12CC[C@H](O)CC1=CC[C@@H]1[C@@H]2CC[C@]2(C)C(c3ccccn3)=CC[C@@H]12 [Example 2-Pyridyl, reference compound]
IC50 (C17-C20 lyase): 0.13 µM
IC50 (17α-hydroxylase): 0.32 µM

C[C@]12CC[C@H](O)CC1=CC[C@@H]1[C@@H]2CC[C@]2(C)C(Cc3ccccn3)=CC[C@@H]12 [Example 2-picolyl, reference compound]
IC50 (C17-C20 lyase; [5]): > 10 µM
IC50 (17α-hydroxylase; [6]): > 10 µM

C[C@]12CC[C@H](O)CC1=CC[C@@H]1[C@@H]2CC[C@]2(C)C(c3ccncc3)=CC[C@@H]12 [Example 4-pyridyl, reference compound]
IC50 (C17-C20 lyase; [5]): 2 µM
IC50 (17α-hydroxylase; [6]): 5 µM

CC(=O)N1CCN(c2ccc(OCC3COC(Cn4ccnc4)(c4ccc(Cl)cc4Cl)O3)cc2)CC1 (stereo not drawn) [Ketoconazole, reference compound]
Mean weight Kidneys (Male HWT mice [1]; 0.01mmol/kg/day i.p.): 637 ± 22 mg
Mean weight Prostate (Male HWT mice [1]; 0.01mmol/kg/day i.p.): 9.1 ± 0.8 mg
Mean weight Seminal Vesicles (Male HWT mice [1]; 0.01mmol/kg/day i.p.): 235 ± 18 mg
Mean weight Testes (Male HWT mice [1]; 0.01mmol/kg/day i.p.): 141 ± 5 mg
Mean weight Kidneys (Male HWT mice [1]; 0.225 mmol/kg/day i.p.): 574 ± 23 mg
Mean weight Prostate (Male HWT mice [1]; 0.225 mmol/kg/day i.p.): 10.8 ± 1.4 mg
Mean weight Seminal Vesicles (Male HWT mice [1]; 0.225 mmol/kg/day i.p.): 171 ± 5 mg
Mean weight Testes (Male HWT mice [1]; 0.225 mmol/kg/day i.p.): 127 ± 7 mg
Mean weight Kidneys (Male HWT mice [1]; 0.5 mmol/kg/day i.p.): 710 ± 30 mg
Mean weight Prostate (Male HWT mice [1]; 0.5 mmol/kg/day i.p.): 9.3 ± 0.9 mg
Mean weight Seminal Vesicles (Male HWT mice [1]; 0.5 mmol/kg/day i.p.): 179 ± 20 mg
Mean weight Testes (Male HWT mice [1]; 0.5 mmol/kg/day i.p.): 133 ± 6 mg
LH (luteinising hormone; 0.1Mmol/Kg/Day i.p.): 0.39 ± 0.14 ng/mL
LH (luteinising hormone; 0.225Mmol/Kg/Day i.p.): 0.75 ± 0.02 ng/mL
LH (luteinising hormone; 0.5Mmol/Kg/Day i.p.): 0.76 ± 0.03 ng/mL
Post mortem examination: livers (Male HWT mice [2]): brown
